# Measured values published in ChEMBL document CHEMBL3880402, “Inhibitors of E1 activating enzymes” (2006).
# Target: T1, NEDD8-activating enzyme E1 catalytic subunit (Homo sapiens, UniProt Q8TBC4)
# T1 sequence (Q8TBC4 whole entry): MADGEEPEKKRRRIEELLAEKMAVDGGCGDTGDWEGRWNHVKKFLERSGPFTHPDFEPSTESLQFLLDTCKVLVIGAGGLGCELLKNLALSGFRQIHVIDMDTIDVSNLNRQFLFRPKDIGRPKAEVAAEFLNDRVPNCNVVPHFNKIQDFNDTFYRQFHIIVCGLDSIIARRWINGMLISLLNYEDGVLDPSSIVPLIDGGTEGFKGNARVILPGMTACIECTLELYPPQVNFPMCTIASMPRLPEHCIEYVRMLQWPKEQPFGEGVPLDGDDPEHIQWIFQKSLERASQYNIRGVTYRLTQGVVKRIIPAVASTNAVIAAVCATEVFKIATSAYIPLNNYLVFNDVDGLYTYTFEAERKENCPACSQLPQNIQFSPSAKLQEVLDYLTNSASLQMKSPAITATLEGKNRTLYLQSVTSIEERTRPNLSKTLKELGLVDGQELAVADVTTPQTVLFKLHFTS
# Assay: Inhibition of recombinant human untagged NAEalpha/N-terminal His-tagged NAEbeta expressed in Bac-to-Bac expression system using FLAG-tagged NEDD8 as substrate after 90 mins in presence of GST-tagged Ubc12 by HTRF assay
row,IC50 [µM],SMILES
1,0.1 to 1,NS(=O)(=O)OC[C@H]1O[C@@H](n2cnc3c(NCc4cccs4)ncnc32)[C@H](O)[C@@H]1O
2,≤ 1,NS(=O)(=O)NC[C@H]1O[C@@H](n2cnc3c(NCCOc4ccccc4)ncnc32)[C@H](O)[C@@H]1O
3,0.1 to 1,COc1cccc(CNc2ncnc3c2ncn3[C@@H]2O[C@H](CNS(N)(=O)=O)[C@@H](O)[C@H]2O)c1
4,0.1 to 1,NS(=O)(=O)OC[C@H]1O[C@@H](n2cnc3c(N[C@@H]4c5ccccc5C[C@@H]4O)ncnc32)[C@H](O)[C@@H]1O
5,0.1 to 1,NS(=O)(=O)NC[C@H]1O[C@@H](n2cnc3c(NCc4ccccc4)ncnc32)[C@H](O)[C@@H]1O
6,0.1 to 1,NS(=O)(=O)OC[C@H]1O[C@@H](n2cnc3c(NCCN4CCOCC4)ncnc32)[C@H](O)[C@@H]1O
7,0.1 to 1,NS(=O)(=O)NC[C@H]1O[C@@H](n2cnc3c(N[C@@H]4c5ccccc5C[C@@H]4O)ncnc32)[C@H](O)[C@@H]1O
8,0.1 to 1,NS(=O)(=O)OC[C@H]1O[C@@H](n2cnc3c(NCC4CCNCC4)ncnc32)[C@H](O)[C@@H]1O
9,0.1 to 1,NS(=O)(=O)OC[C@H]1O[C@@H](n2cnc3c(NCC4CCCCC4)ncnc32)[C@H](O)[C@@H]1O
10,0.1 to 1,NS(=O)(=O)OC[C@H]1O[C@@H](n2cnc3c(NC(=O)c4ccc(F)cc4)ncnc32)[C@H](O)[C@@H]1O
11,0.1 to 1,NS(=O)(=O)NC[C@H]1O[C@@H](n2cnc3c(N[C@H]4CCc5ccccc54)ncnc32)[C@H](O)[C@@H]1O
12,≤ 1,Cc1cnc(CNc2ncnc3c2ncn3[C@@H]2O[C@H](CNS(N)(=O)=O)[C@@H](O)[C@H]2O)cn1
13,≤ 1,NS(=O)(=O)NC[C@H]1O[C@@H](n2cnc3c(NCc4csc5ccccc45)ncnc32)[C@H](O)[C@@H]1O
14,≤ 1,COCCNc1ncnc2c1ncn2[C@@H]1O[C@H](CNS(N)(=O)=O)[C@@H](O)[C@H]1O
15,0.1 to 1,NS(=O)(=O)OC[C@H]1O[C@@H](n2cnc3c(NCc4cccc5ccccc45)ncnc32)[C@H](O)[C@@H]1O
16,0.1 to 1,NS(=O)(=O)OC[C@H]1O[C@@H](n2cnc3c(N[C@H](CO)c4ccccc4)ncnc32)[C@H](O)[C@@H]1O
17,0.1 to 1,NS(=O)(=O)OC[C@H]1O[C@@H](n2cnc3c(NCc4ccccc4)ncnc32)[C@H](O)[C@@H]1O
18,0.1 to 1,NS(=O)(=O)NC[C@H]1O[C@@H](n2cnc3c(NCC(c4ccccc4)c4ccccc4)ncnc32)[C@H](O)[C@@H]1O
19,0.1 to 1,Nc1nc(N[C@H]2CCc3ccccc32)c2ncn([C@@H]3O[C@H](COS(N)(=O)=O)[C@@H](O)[C@H]3O)c2n1

# Further lines, the compound ahead of its results:
row,SMILES,IC50 [µM]
1,NS(=O)(=O)OC[C@H]1O[C@@H](n2cnc3c(N[C@H]4CCc5ccccc54)ncnc32)[C@H](O)[C@@H]1O,0.1 to 1
2,COCCNc1ncnc2c1ncn2[C@@H]1O[C@H](COS(N)(=O)=O)[C@@H](O)[C@H]1O,0.1 to 1
3,NS(=O)(=O)OC[C@H]1O[C@@H](n2cnc3c(NCCc4ccccc4)ncnc32)[C@H](O)[C@@H]1O,0.1 to 1
4,NS(=O)(=O)OC[C@H]1O[C@@H](n2cnc3c(NCc4ccc(OC(F)(F)F)cc4)ncnc32)[C@H](O)[C@@H]1O,0.1 to 1
5,NS(=O)(=O)OC[C@H]1O[C@@H](n2ccc3c(N[C@H]4CCc5ccccc54)ncnc32)[C@H](O)[C@@H]1O,0.1 to 1
6,NS(=O)(=O)OC[C@H]1O[C@@H](n2cnc3c(NCc4ccc(Cl)cc4)ncnc32)[C@H](O)[C@@H]1O,0.1 to 1
7,NS(=O)(=O)NC[C@H]1O[C@@H](n2cnc3c(N[C@@H](CO)c4ccccc4)ncnc32)[C@H](O)[C@@H]1O,0.1 to 1
8,Cc1cnc(CNc2ncnc3c2ncn3[C@@H]2O[C@H](COS(N)(=O)=O)[C@@H](O)[C@H]2O)cn1,0.1 to 1
9,NS(=O)(=O)OC[C@H]1O[C@@H](n2cnc3c(Cc4ccc(F)cc4)ncnc32)[C@H](O)[C@@H]1O,≤ 1
10,NS(=O)(=O)OC[C@H]1O[C@@H](n2cnc3c(Nc4ccc(Cl)cc4)ncnc32)[C@H](O)[C@@H]1O,0.1 to 1
11,NS(=O)(=O)NC[C@H]1O[C@@H](n2cnc3c(NCc4ccc5c(c4)OCO5)ncnc32)[C@H](O)[C@@H]1O,0.1 to 1
12,NS(=O)(=O)OC[C@H]1O[C@@H](n2cnc3c(NC(=O)c4ccccc4)ncnc32)[C@H](O)[C@@H]1O,0.1 to 1
13,COc1cccc(CNc2ncnc3c2ncn3[C@@H]2O[C@H](COS(N)(=O)=O)[C@@H](O)[C@H]2O)c1,0.1 to 1
14,NS(=O)(=O)OC[C@H]1O[C@@H](n2cnc3c(N[C@H]4CCc5ccccc54)nc(Cl)nc32)[C@H](O)[C@@H]1O,0.1 to 1
15,NS(=O)(=O)NC[C@H]1O[C@@H](n2cnc3c(N[C@@H]4CCc5ccccc54)ncnc32)[C@H](O)[C@@H]1O,0.1 to 1
16,COc1ccccc1CNc1ncnc2c1ncn2[C@@H]1O[C@H](COS(N)(=O)=O)[C@@H](O)[C@H]1O,0.1 to 1
17,NS(=O)(=O)CC[C@H]1O[C@@H](n2cnc3c(N[C@@H]4c5ccccc5C[C@@H]4O)ncnc32)[C@H](O)[C@@H]1O,0.1 to 1
18,NS(=O)(=O)OC[C@H]1O[C@@H](n2cnc3c(NCCN4CCN(Cc5ccccc5)CC4)ncnc32)[C@H](O)[C@@H]1O,0.1 to 1
19,NS(=O)(=O)CC[C@H]1O[C@@H](n2cnc3c(N[C@H]4CCc5ccccc54)ncnc32)[C@H](O)[C@@H]1O,0.1 to 1
20,NS(=O)(=O)OC[C@H]1C[C@@H](n2cnc3c(N[C@H]4CCc5ccccc54)ncnc32)[C@H](O)[C@@H]1O,0.1 to 1
21,NS(=O)(=O)OC[C@H]1O[C@@H](n2cnc3c(N[C@@H](CO)c4ccccc4)ncnc32)[C@H](O)[C@@H]1O,0.1 to 1
22,NS(=O)(=O)OC[C@H]1O[C@@H](n2cnc3c(C#Cc4ccccc4)ncnc32)[C@H](O)[C@@H]1O,0.1 to 1
23,NS(=O)(=O)NC[C@H]1O[C@@H](n2cnc3c(NCc4cccs4)ncnc32)[C@H](O)[C@@H]1O,0.1 to 1
24,NS(=O)(=O)NC[C@H]1O[C@@H](n2cnc3c(NCc4cccc5ccccc45)ncnc32)[C@H](O)[C@@H]1O,0.1 to 1
25,NS(=O)(=O)OC[C@H]1O[C@@H](n2cnc3c(CCc4ccccc4)ncnc32)[C@@H](F)[C@@H]1O (relative stereo),0.1 to 1
